Experimental data reported in patent US20120034613A1, “Apparatus and Method for Testing Relationships Between Gene Expression and Physical Appearance of Skin” (NSE Products, Inc., priority 2010, published 2012).

System: EpidermFT™ Skin Model (EFT-400) full thickness skin cultures
Test: Affymetrix GeneChip HG U133 Plus 2.0 microarray global gene expression, agent-exposed vs untreated skin cultures
Assay type: cell-based, human
[1] = probe 239272_at, Table 3 skin structure
[2] = probe 1552319_a_at, 0.5%, 24 hr
[3] = probe 1552578_a_at, 0.5%, 24 hr
[4] = probe 1554252_a_at, 0.5%, 24 hr
[5] = probe 1554741_s_at, 0.5%, 24 hr
[6] = probe 1554921_a_at, 0.5%, 24 hr
[7] = probe 1554980_a_at, 0.5%, 24 hr
[8] = probe 1554997_a_at, 0.5%, 24 hr
[9] = probe 1555103_s_at, 0.5%, 24 hr
[10] = probe 1555416_a_at, 0.5%, 24 hr
[11] = probe 1556410_a_at, 0.5%, 24 hr
[12] = probe 1558143_a_at, 0.5%, 24 hr
[13] = tissue exposed to salicin, skin structure gene, Table 4
[14] = tissue exposed to salicin, skin structure gene, Table 4, direction down
[15] = tissue exposed to salicin, skin structure gene, Table 4, direction up

Compound: OCc1ccccc1O[C@@H]1O[C@H](CO)[C@@H](O)[C@H](O)[C@H]1O [Salicin, 2-(Hydroxymethyl)phenyl β-D-glucospyranoside]
- Direction NFKBIZ (probe 223217_s_at, 0.5%, 24 hr): up
- Fold change NFKBIZ (probe 223217_s_at, 0.5%, 24 hr): 2.35
- Direction SLC25A19 (probe 223222_at, 0.5%, 24 hr): up
- Fold change SLC25A19 (probe 223222_at, 0.5%, 24 hr): 2.243
- Direction HAS3 (probe 223541_at, 0.5%, 24 hr): down
- Fold change HAS3 (probe 223541_at, 0.5%, 24 hr): 3.713
- Direction TRPC4 (probe 224220_x_at, 0.5%, 24 hr): up
- Fold change TRPC4 (probe 224220_x_at, 0.5%, 24 hr): 2.708
- Direction CNFN (probe 224329_s_at, 0.5%, 24 hr): down
- Fold change CNFN (probe 224329_s_at, 0.5%, 24 hr): 5.442
- Direction H2AFJ (probe 225245_x_at, 0.5%, 24 hr): down
- Fold change H2AFJ (probe 225245_x_at, 0.5%, 24 hr): 2.328
- Direction ABHD2 (probe 225337_at, 0.5%, 24 hr): up
- Fold change ABHD2 (probe 225337_at, 0.5%, 24 hr): 2.704
- Direction NRP2 (probe 225566_at, 0.5%, 24 hr): up
- Fold change NRP2 (probe 225566_at, 0.5%, 24 hr): 3.198
- Direction FGF11 (probe 227271_at, 0.5%, 24 hr): down
- Fold change FGF11 (probe 227271_at, 0.5%, 24 hr): 2.672
- Direction HS3ST3B1 (probe 227361_at, 0.5%, 24 hr): up
- Fold change HS3ST3B1 (probe 227361_at, 0.5%, 24 hr): 3.41
- Direction SERPINE2 (probe 227487_s_at, 0.5%, 24 hr): up
- Fold change SERPINE2 (probe 227487_s_at, 0.5%, 24 hr): 3.148
- Direction ASAM (probe 228082_at, 0.5%, 24 hr): up
- Fold change ASAM (probe 228082_at, 0.5%, 24 hr): 2.108
- Direction IL20RB (probe 228575_at, 0.5%, 24 hr): down
- Fold change IL20RB (probe 228575_at, 0.5%, 24 hr): 10.04
- Direction SCN9A (probe 229199_at, 0.5%, 24 hr): up
- Fold change SCN9A (probe 229199_at, 0.5%, 24 hr): 3.818
- Direction CREB5 (probe 229228_at, 0.5%, 24 hr): up
- Fold change CREB5 (probe 229228_at, 0.5%, 24 hr): 9.768
- Direction TNS4 (probe 230398_at, 0.5%, 24 hr): down
- Fold change TNS4 (probe 230398_at, 0.5%, 24 hr): 2.738
- Direction SLC20A1 (probe 230494_at, 0.5%, 24 hr): up
- Fold change SLC20A1 (probe 230494_at, 0.5%, 24 hr): 2.526
- Direction KLF15 (probe 231015_at, 0.5%, 24 hr): up
- Fold change KLF15 (probe 231015_at, 0.5%, 24 hr): 2.338
- Direction KGFLP2 (probe 231031_at, 0.5%, 24 hr): up
- Fold change KGFLP2 (probe 231031_at, 0.5%, 24 hr): 3.34
- Direction EPPK1 (probe 232165_at, 0.5%, 24 hr): down
- Fold change EPPK1 (probe 232165_at, 0.5%, 24 hr): 12.4
- Direction ELOVL3 (probe 234513_at, 0.5%, 24 hr): down
- Fold change ELOVL3 (probe 234513_at, 0.5%, 24 hr): 2.048
- Direction KRTCAP3 (probe 235148_at, 0.5%, 24 hr): down
- Fold change KRTCAP3 (probe 235148_at, 0.5%, 24 hr): 2.158
- Direction GSTA4 (probe 235405_at, 0.5%, 24 hr): down
- Fold change GSTA4 (probe 235405_at, 0.5%, 24 hr): 3.3
- Direction SGPP2 (probe 238567_at, 0.5%, 24 hr): down
- Fold change SGPP2 (probe 238567_at, 0.5%, 24 hr): 5.641
- Direction MMP28 [1]: down
- Fold change MMP28 [1]: 4.074
- Direction MMP28 (probe 239273_s_at, 0.5%, 24 hr): down
- Fold change MMP28 (probe 239273_s_at, 0.5%, 24 hr): 2.678
- Direction DSEL (probe 244852_at, 0.5%, 24 hr): up
- Fold change DSEL (probe 244852_at, 0.5%, 24 hr): 2.251
- Direction KLK8 [2]: down
- Fold change KLK8 [2]: 4.867
- Direction MYO3B [3]: up
- Fold change MYO3B [3]: 2.338
- Direction SNX21 (probe 1553960_at, 0.5%, 24 hr): down
- Fold change SNX21 (probe 1553960_at, 0.5%, 24 hr): 2.031
- Direction LASS3 [4]: down
- Fold change LASS3 [4]: 15.34
- Direction FGF7 /// KGFLP1 /// KGFLP2 [5]: up
- Fold change FGF7 /// KGFLP1 /// KGFLP2 [5]: 2.506
- Direction SCEL [6]: down
- Fold change SCEL [6]: 6.1
- Direction ATF3 [7]: up
- Fold change ATF3 [7]: 2.623
- Direction PTGS2 [8]: up
- Fold change PTGS2 [8]: 6.813
- Direction FGF7 [9]: up
- Fold change FGF7 [9]: 2.35
- Direction ALOX15B [10]: down
- Fold change ALOX15B [10]: 2.215
- Direction KRTAP19-1 [11]: up
- Fold change KRTAP19-1 [11]: 24.65
- Direction BCL2L11 [12]: up
- Fold change BCL2L11 [12]: 2.347
- Direction LCE1E (probe 1559224_at, 0.5%, 24 hr): down
- Fold change LCE1E (probe 1559224_at, 0.5%, 24 hr): 4.811
- Direction LCE1B (probe 1560531_at, 0.5%, 24 hr): down
- Fold change LCE1B (probe 1560531_at, 0.5%, 24 hr): 71.235
- Direction ITGB1 (probe 1561042_at, 0.5%, 24 hr): up
- Fold change ITGB1 (probe 1561042_at, 0.5%, 24 hr): 2.151
- Direction FLG2 (probe 1569410_at, 0.5%, 24 hr): down
- Fold change FLG2 (probe 1569410_at, 0.5%, 24 hr): 45.91
- Direction COL4A1 (211981_at) [13]: up
- Direction FBN2 (203184_at) [13]: up
- Direction FN1 (214702_at) [13]: up
- Direction FNDC3A (215910_s_at) [13]: up
- Direction FOXO1 (202724_s_at) [13]: up
- Direction IGFBP5 (211958_at) [13]: up
- Direction ITGB1 (1561042_at) [13]: up
- Direction KRT5 (201820_at) [13]: down
- Direction KRT9 (208188_at) [13]: down
- Direction MMP28 (239272_at) [13]: down
- Direction SOD2 (215078_at) [13]: up
- Direction TIMP3 (201150_s_at) [13]: up
- Direction TNC (216005_at) [13]: up
- Direction TNFAIP3 (202643_s_at) [13]: up
- Fold change KRT5 (201820_at) [14]: 3.737
- Fold change KRT9 (208188_at) [14]: 3.737
- Fold change MMP28 (239272_at) [14]: 4.074
- Fold change COL4A1 (211981_at) [15]: 2.121
- Fold change FBN2 (203184_at) [15]: 2.028
- Fold change FN1 (214702_at) [15]: 2.71
- Fold change FNDC3A (215910_s_at) [15]: 3.663
- Fold change FOXO1 (202724_s_at) [15]: 2.098
- Fold change IGFBP5 (211958_at) [15]: 2.712
- Fold change ITGB1 (1561042_at) [15]: 2.151
- Fold change SOD2 (215078_at) [15]: 5.712
- Fold change TIMP3 (201150_s_at) [15]: 2.058
- Fold change TNC (216005_at) [15]: 2.719
- Fold change TNFAIP3 (202643_s_at) [15]: 6.915
